Reference: ChEMBL document CHEMBL4732195, “Promising hit compounds against resistant trichomoniasis: Synthesis and antiparasitic activity of 3-(ω-aminoalkoxy)-1-benzyl-5-nitroindazoles” (Bioorg Med Chem Lett, 2021)

What was measured:
[1] = Selectivity index, ratio of CC50 for African green monkey Vero cells to IC50 for Trichomonas vaginalis JH31A#4 trophozoites; assay type: toxicity; settings: read-out: Ratio CC50/IC50
Trichomonas vaginalis [2] = experiment: Antimicrobial activity against Trichomonas vaginalis IR78 trophozoites assessed as reduction in parasitic growth incubated for 24 hrs by resazurin dye based fluorescence assay; assay type: functional, organism-based; settings: IR78, 24 h
Trichomonas vaginalis [3] = experiment: Antimicrobial activity against Trichomonas vaginalis JH31A#4 trophozoites assessed as reduction in parasitic growth incubated for 24 hrs by resazurin dye based fluorescence assay; assay type: functional, organism-based; settings: JH31A#4, 24 h
[4] = Cytotoxicity against African green monkey Vero cells; assay type: cell-based; settings: chlorocebus sabaeus
[5] = Selectivity index, ratio of CC50 for African green monkey Vero cells to IC50 for Trichomonas vaginalis IR78 trophozoites; assay type: toxicity; settings: read-out: Ratio CC50/IC50

| SMILES | selectivity ratio [1] | IC50 (Trichomonas vaginalis [2]) [µM] | IC50 (Trichomonas vaginalis [3]) [µM] | CC50 [4] [µM] | selectivity ratio [5] |
| --- | --- | --- | --- | --- | --- |
| CNCCCCCOc1nn(Cc2ccccc2)c2ccc([N+](=O)[O-])cc12 | 9.6 | 0.5 | 2.5 | 24 | 48 |
| O=[N+]([O-])c1ccc2c(c1)c(OCCCN1CCCCC1)nn2Cc1ccccc1 |  |  | 104 |  |  |
| O=[N+]([O-])c1ccc2c(c1)c(OCCBr)nn2Cc1ccccc1 |  |  | > 300 |  |  |
| NCCCCCOc1nn(Cc2ccccc2)c2ccc([N+](=O)[O-])cc12 | 13.7 | 59.1 | 4.2 | 57.7 | 1 |
| NCCOc1nn(Cc2ccccc2)c2ccc([N+](=O)[O-])cc12 | > 28.6 | 14.3 | 10.5 | > 300 | > 21 |
| CN(C)CCCCCOc1nn(Cc2ccccc2)c2ccc([N+](=O)[O-])cc12 | 8 | 55.9 | 6.5 | 52.3 | 0.94 |
| O=[N+]([O-])c1ccc2c(c1)c(OCCN1CCCCC1)nn2Cc1ccccc1 |  |  | 265 |  |  |
| O=C1c2ccccc2C(=O)N1CCCOc1nn(Cc2ccccc2)c2ccc([N+](=O)[O-])cc12 |  |  | 70.3 |  |  |
| CN(C)CCCOc1nn(Cc2ccccc2)c2ccc([N+](=O)[O-])cc12 |  |  | 63.7 |  |  |
| O=[N+]([O-])c1ccc2c(c1)c(OCCCCCN1CCCCC1)nn2Cc1ccccc1 |  |  | 69 |  |  |
| Cc1ncc([N+](=O)[O-])n1CCO [METRONIDAZOLE] | > 176 | 3 | 1.7 | > 300 | > 100 |
| NCCCOc1nn(Cc2ccccc2)c2ccc([N+](=O)[O-])cc12 | 2.4 | 1.3 | 19.2 | 46.3 | 35.6 |
| O=[N+]([O-])c1ccc2c(c1)c(OCCCCCBr)nn2Cc1ccccc1 |  |  | > 300 |  |  |
| CNCCOc1nn(Cc2ccccc2)c2ccc([N+](=O)[O-])cc12 | 10.5 | 74.7 | 16.3 | 171 | 2.3 |
| CN(C)CCOc1nn(Cc2ccccc2)c2ccc([N+](=O)[O-])cc12 |  |  | 207 |  |  |
| O=C1c2ccccc2C(=O)N1CCOc1nn(Cc2ccccc2)c2ccc([N+](=O)[O-])cc12 |  |  | 282 |  |  |
